According to patent publication US12448375B2, “Kinase inhibitors for the treatment of neurodegenerative diseases” (Ohio State Innovation Foundation, priority 2019, dated 2025):
Read-outs that look alike come from different tables or passages of the source.

Key:
JNK1 = molecular target: T1, JNK1 (Homo sapiens, UniProt P45983); assay: HotSpot Kinase Assay, JNK1; type: biochemical; conditions: HotSpot radiometric assay, 33P-ATP
T1 construct: purchased Reaction Biology Corp
Procedure: (§1) The anti-JNK3 activity of compounds prepared as in the previous examples was evaluated using a Reaction Biology Corp. HotSpot Kinase Assay. Base reaction buffer was 20 mM HEPES (4-(2-hydroxyethyl)-1-piperazineethanesulfonic acid) at pH 7.5 with 10 mM MgCl2, 1 mM EGTA (ethylene glycol-bis(β-aminoethyl ether)-N,N,N′,N′-tetracetic acid), 0.02% Brij™ 35, 0.02 mg/mL BSA (bovine serum albumin), 0.1 mM Na3VO4, 2 mM DTT (dithiothreitol), and 1% DMSO. Required cofactors were added individually to each kinase reaction.
(§2) Activity against related enzymes JNK1 and P38a was further assessed using the same assay.

[1] = tested on: c-jun phosphorylation in SH-SY5Y human neuroblastoma cell line; assay: In Cell Western Assay, p-c-jun after TNFa; type: cell-based; conditions: SH-SY5Y cells, 25 ng/ml TNFa 1 hour, read-out: Phosphoryl. in SH-SY5Y
Procedure: SH-SY5Y human neuroblastoma cell line was utilized for the assay. […] Next day, cells were starved of serum for 2 hours by media replacement with serum free DMEM:F12. Cells were then pretreated with inhibitors in DMEM:F12 for 30 min, which was followed by the addition of 25 ng/ml of TNFa for 1 hour. At the end of incubation, cells were fixed with 3% paraformaldehyde for 20 min at room temperature. Following three washes with 0.1 M phosphate buffer (pH 7.0) with shaking during washes, cells were treated with Licor blocking buffer (1:1 dilution in PBS with 0.3% Triton X-100) for 1 hour on a shaker. […] Next day, cells were washed with PBS containing 0.3% Triton X-100 for 5 min each three times with shaking. […] Following three 5 min washes, cells were incubated for nuclei staining with Alexa 680 succinidimyl ester (Thermofisher cat #, A20008) at 1/40,000 dilution for 15 min with shaking and subsequent three 5 min washes. P-c-jun and nuclei signals were detected using Odyssey LiCor Infrared scanner. The p-c-jun signal of each well was normalized to the cell number using nuclei signal.

p38a = molecular target: T2, p38a (Homo sapiens, UniProt Q16539); assay: HotSpot Kinase Assay, P38a; type: biochemical; conditions: HotSpot radiometric assay, 33P-ATP
T2 construct: purchased Reaction Biology Corp
T2 sequence (Q16539 whole entry): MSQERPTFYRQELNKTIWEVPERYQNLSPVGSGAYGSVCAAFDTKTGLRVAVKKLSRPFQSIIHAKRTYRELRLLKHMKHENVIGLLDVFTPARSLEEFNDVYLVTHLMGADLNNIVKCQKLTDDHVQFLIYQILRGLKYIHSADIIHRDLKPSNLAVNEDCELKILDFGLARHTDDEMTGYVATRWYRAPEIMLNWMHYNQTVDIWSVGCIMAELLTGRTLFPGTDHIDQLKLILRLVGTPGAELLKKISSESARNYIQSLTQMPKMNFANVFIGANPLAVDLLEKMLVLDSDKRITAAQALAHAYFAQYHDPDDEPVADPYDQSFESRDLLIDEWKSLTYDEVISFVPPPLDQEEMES
Procedure: as §1, §2

JNK3 = molecular target: T3, JNK3 (Homo sapiens, UniProt P53779); assay: HotSpot Kinase Assay (Reaction Biology Corp.), anti-JNK3 activity; type: biochemical; conditions: HotSpot radiometric assay, 33P-ATP
T3 construct: purchased Reaction Biology Corp
T3 sequence (P53779 whole entry): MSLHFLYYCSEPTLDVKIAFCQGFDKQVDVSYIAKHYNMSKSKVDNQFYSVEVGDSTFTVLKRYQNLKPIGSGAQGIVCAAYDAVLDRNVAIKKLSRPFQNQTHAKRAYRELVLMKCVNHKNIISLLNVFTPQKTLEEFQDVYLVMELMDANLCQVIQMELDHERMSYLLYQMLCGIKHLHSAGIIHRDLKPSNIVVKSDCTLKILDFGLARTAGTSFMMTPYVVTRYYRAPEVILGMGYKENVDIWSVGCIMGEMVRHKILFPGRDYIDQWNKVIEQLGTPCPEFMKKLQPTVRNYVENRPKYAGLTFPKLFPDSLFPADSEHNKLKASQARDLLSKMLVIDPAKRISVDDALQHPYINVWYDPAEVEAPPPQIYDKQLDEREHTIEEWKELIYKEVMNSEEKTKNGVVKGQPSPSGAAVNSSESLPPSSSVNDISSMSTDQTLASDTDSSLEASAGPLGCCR
Procedure: as §1, §2

T1 sequence (P45983 whole entry): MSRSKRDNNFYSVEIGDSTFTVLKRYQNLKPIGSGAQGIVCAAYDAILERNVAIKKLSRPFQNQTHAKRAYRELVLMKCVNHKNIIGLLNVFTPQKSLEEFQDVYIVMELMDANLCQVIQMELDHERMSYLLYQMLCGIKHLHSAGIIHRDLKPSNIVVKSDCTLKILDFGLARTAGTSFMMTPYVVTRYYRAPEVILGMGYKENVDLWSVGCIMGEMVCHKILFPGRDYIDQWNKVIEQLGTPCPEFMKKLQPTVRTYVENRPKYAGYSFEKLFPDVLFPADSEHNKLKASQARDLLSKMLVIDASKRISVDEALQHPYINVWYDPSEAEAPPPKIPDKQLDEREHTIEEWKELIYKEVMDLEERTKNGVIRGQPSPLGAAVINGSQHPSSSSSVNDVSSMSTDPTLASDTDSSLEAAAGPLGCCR

`CNC(=O)c1cc(-n2ncc3cc(Nc4ccccc4Cl)ncc32)cs1` [Compound 6, 4-(5-((2-chlorophenyl)amino)-1H-pyrazolo[3,4-c]pyridin-1-yl)-N-methylthiophene-2-carboxamide] was tested, and the IC50 (JNK1) was > 1000 nM, the IC50 ([1]; printed as a numeric range) was 10 to 100 nM and the IC50 (p38a) was 200 to 1000 nM. The IC50 (JNK3) was < 200 nM.

`[2H]C([2H])([2H])N1CC[C@H](NC(=O)c2cc(-n3ncc4cc(Oc5ccccc5Cl)ccc43)cs2)C1` [Compound 9, (S)-4-(5-(2-chlorophenoxy)-1H-indazol-1-yl)-N-(1-(methyl-d3)pyrrolidin-3-yl)thiophene-2-carboxamide] was tested, and the IC50 (JNK1) was > 1000 nM, the IC50 [1] was > 1000 nM and the IC50 (p38a) was > 1000 nM. For the same molecule, the IC50 (JNK3) was < 200 nM.

In the case of `CNC(=O)c1cc(-n2ncc3cc(Nc4ccccc4Cl)c(F)cc32)cs1` [Compound 28, 4-(5-((2-chlorophenyl)amino)-6-fluoro-1H-indazol-1-yl)-N-methylthiophene-2-carboxamide], the IC50 (JNK1) is reported as 200 to 1000 nM, the IC50 [1] is reported as < 200 nM and the IC50 (p38a) is reported as < 200 nM. For the same molecule, the IC50 (JNK3) was < 200 nM.

For `[2H]C([2H])([2H])N1CC[C@H](NC(=O)c2cc(-n3ncc4cc(Nc5ccccc5Cl)ccc43)cs2)C1` [Compound 30, (S)-4-(5-((2-chlorophenyl)amino)-1H-indazol-1-yl)-N-(1-(methyl-d3)pyrrolidin-3-yl)thiophene-2-carboxamide], the IC50 (JNK1) was 200 to 1000 nM, the IC50 [1] was < 200 nM and the IC50 (p38a) was 200 to 1000 nM. The IC50 (JNK3) was < 200 nM.

With `[2H]C([2H])([2H])N1CC[C@H](NC(=O)c2cc(-n3ncc4cc(Nc5ccccc5Cl)c(F)cc43)cs2)C1` [Compound 36, (S)-4-(5-((2-chlorophenyl)amino)-6-fluoro-1H-indazol-1-yl)-N-(1-(methyl-d3)pyrrolidin-3-yl)thiophene-2-carboxamide] the IC50 (JNK1) was 200 to 1000 nM, the IC50 [1] was < 200 nM and the IC50 (p38a) was 200 to 1000 nM. The IC50 (JNK3) was < 200 nM.

`CNC(=O)c1cc(-n2ncc3nc(Nc4ccccc4Cl)ccc32)cs1` [Compound 50, 4-(5-((2-chlorophenyl)amino)-1H-pyrazolo[4,3-b]pyridin-1-yl)-N-methylthiophene-2-carboxamide] was tested, and the IC50 (JNK1) was > 1000 nM, the IC50 [1] was < 200 nM and the IC50 (p38a) was 200 to 1000 nM. The IC50 (JNK3) was < 200 nM.

With `CNC(=O)c1cc(-n2ncc3cc(Nc4cccc(OC)c4Cl)c(C)nc32)cs1` [Compound 81, 4-(5-((2-chloro-3-methoxyphenyl)amino)-6-methyl-1H-pyrazolo[3,4-b]pyridin-1-yl)-N-methylthiophene-2-carboxamide] the IC50 (JNK1) was 200 to 1000 nM, the IC50 (p38a) was 200 to 1000 nM and the IC50 (JNK3) was < 200 nM.

For `Cc1nc2c(cnn2-c2csc(C(=O)NC3COC3)c2)cc1Nc1cccc(F)c1Cl` [Compound 100, 4-(5-((2-chloro-3-fluorophenyl)amino)-6-methyl-1H-pyrazolo[3,4-b]pyridin-1-yl)-N-(oxetan-3-yl)thiophene-2-carboxamide], the IC50 (JNK1) was 200 to 1000 nM, the IC50 (p38a) was 200 to 1000 nM and the IC50 (JNK3) was < 200 nM.

In the case of `CNC(=O)c1cc(-n2ncc3cc(Nc4c(Cl)cccc4OC)cnc32)cs1` [Compound 109, 4-(5-((2-chloro-6-methoxyphenyl)amino)-1H-pyrazolo[3,4-b]pyridin-1-yl)-N-methylthiophene-2-carboxamide], the IC50 (JNK1) is reported as > 1000 nM, the IC50 (p38a) is reported as 200 to 1000 nM and the IC50 (JNK3) is reported as < 200 nM.

`CNC(=O)c1cc(-n2ncc3cc(Nc4c(F)cccc4Cl)c(F)cc32)cs1` [Compound 111, 4-(5-((2-chloro-6-fluorophenyl)amino)-6-fluoro-1H-indazol-1-yl)-N-methylthiophene-2-carboxamide] was tested, and the IC50 (JNK1) was > 1000 nM, the IC50 (p38a) was 200 to 1000 nM and the IC50 (JNK3) was < 200 nM.

With `CNC(=O)c1cc(-n2ncc3cc(Nc4c(F)cccc4Cl)c(COC)cc32)cs1` [Compound 152] the IC50 (JNK1) was 200 to 1000 nM, the IC50 (p38a) was 200 to 1000 nM and the IC50 (JNK3) was < 200 nM.
